Source: patent US7335659B2, “Substituted 10-aryl-11H-benzo[b]fluorenes and 7-aryl-5, 6-dihydro-benzo[a]anthracenes for selective effects on estrogen receptors” (N.V. Organon, priority 2002, dated 2008)

Target: T1, human estrogen receptor β receptor (hERβ) (Homo sapiens, UniProt Q92731)
T1 construct: expressed in transfected cells; host or cells: Chinese hamster ovary (CHO) cells, stably co-transfected with hERβ, rat oxytocin promoter and luciferase reporter gene
Assay: Antiestrogenic activity in in vitro bioassay with recombinant CHO cells co-transfected with hERβ, rat oxytocin promoter and luciferase reporter gene
Assay type: cell-based
Conditions: potency ratio relative to standard ICI 164.384; inhibition of estradiol-induced luciferase transactivation via hERβ in CHO cells
Protocol: The estrogenic and antiestrogenic activity of compounds is determined in an in vitro bioassay with recombinant Chinese hamster ovary (CHO) cells stably co-transfected with the human estrogen receptor α (hERα) or β receptor (hERβ), the rat oxytocin promoter (RO) and the luciferase reporter gene (LUC). The estrogenic activity (potency ratio) of a test compound to stimulate the transactivation of the enzyme luciferase mediated via the estrogen receptors hERα or hERβ is compared with the standard estrogen estradiol. The antiestrogenic activity (potency ratio) of a test compound to inhibit the transactivation of the enzyme luciferase mediated via the estrogen receptors hERα or hERβ by the estrogen estradiol is compared with the standard ICI 164.384 (=(7α, 17β)-N-butyl-3,17-dihydroxy-N-methylestra-1,3,5(10)-triene-7-undecanamide).

T1 sequence (Q92731 whole entry): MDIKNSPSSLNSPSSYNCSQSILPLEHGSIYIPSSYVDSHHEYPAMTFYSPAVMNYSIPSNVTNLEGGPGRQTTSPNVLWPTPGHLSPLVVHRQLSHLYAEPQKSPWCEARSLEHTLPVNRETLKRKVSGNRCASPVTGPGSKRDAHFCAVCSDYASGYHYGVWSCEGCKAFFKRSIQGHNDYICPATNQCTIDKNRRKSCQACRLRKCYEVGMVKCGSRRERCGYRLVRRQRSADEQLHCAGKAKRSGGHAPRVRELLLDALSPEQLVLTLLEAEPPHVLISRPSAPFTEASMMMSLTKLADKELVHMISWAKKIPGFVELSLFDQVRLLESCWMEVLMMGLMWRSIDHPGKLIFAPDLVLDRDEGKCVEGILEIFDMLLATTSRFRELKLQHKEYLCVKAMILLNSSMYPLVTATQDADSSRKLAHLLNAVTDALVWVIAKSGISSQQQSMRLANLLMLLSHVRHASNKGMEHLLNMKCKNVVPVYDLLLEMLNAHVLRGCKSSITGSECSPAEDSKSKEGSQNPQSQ

Compound	ERβ antagonism
Oc1ccc2c(c1)Cc1c-2cc2ccc(O)cc2c1-c1cccc(Cl)c1 [Compound 5n]	+ (>5% (relative to ICI): +)
Oc1ccc2c(c1)Cc1c-2cc2ccc(O)cc2c1-c1ccccc1 [Compound 5v]	+ (>5% (relative to ICI): +)
Cc1cccc(-c2c3c(cc4ccc(O)cc24)-c2ccc(O)cc2C3)c1 [Compound 5p]	+ (>5% (relative to ICI): +)
Oc1ccc2c(c1)Cc1c-2cc2ccc(O)cc2c1-c1cccc(F)c1 [Compound 5j]	+ (>5% (relative to ICI): +)
Oc1ccc2c(c1)Cc1c-2cc2ccc(O)cc2c1-c1ccc(Cl)cc1 [Compound 5a]	+ (>5% (relative to ICI): +)
Oc1ccc2c(c1)Cc1c-2cc2ccc(O)cc2c1-c1ccc(C(F)(F)F)cc1 [Compound 5o]	+ (>5% (relative to ICI): +)
COc1cccc(-c2c3c(cc4ccc(O)cc24)-c2ccc(O)cc2C3)c1 [Compound 5c]	+ (>5% (relative to ICI): +)
Oc1ccc2c(c1)Cc1c-2cc2ccc(O)cc2c1-c1ccc(F)c(Cl)c1 [Compound 5f]	+ (>5% (relative to ICI): +)
Oc1ccc2c(c1)Cc1c-2cc2ccc(O)cc2c1-c1ccc(-c2ccccc2)c(F)c1 [Compound 5s]	+ (>5% (relative to ICI): +)
Oc1ccc2c(c1)Cc1c-2cc2ccc(O)cc2c1-c1ccc2ccccc2c1 [Compound 5b]	+ (>5% (relative to ICI): +)
Oc1ccc2c(c1)Cc1c-2cc2ccc(O)cc2c1-c1ccc2c(c1)OCO2 [Compound 5g]	+ (>5% (relative to ICI): +)
Cc1ccc(-c2c3c(cc4ccc(O)cc24)-c2ccc(O)cc2C3)cc1 [Compound 5e]	++ (>40%: ++)
Oc1ccc2c(c1)Cc1c-2cc2ccc(O)cc2c1-c1ccc(OCCN2CCCCC2)cc1 [Compound 9]	++ (>40%: ++)
Oc1ccc2c(c1)Cc1c-2cc2ccc(O)cc2c1-c1ccc(OC(F)(F)F)cc1 [Compound 5r]	++ (>40%: ++)
CC(C)c1cccc(-c2c3c(cc4ccc(O)cc24)-c2ccc(O)cc2C3)c1 [Compound 5q]	+ (>5% (relative to ICI): +)
Oc1ccc2c(c1)Cc1c-2cc2ccc(O)cc2c1-c1ccc(F)cc1 [Compound 5l]	++ (>40%: ++)
Oc1ccc2c(c1)Cc1c-2cc2ccc(O)cc2c1-c1ccccc1C(F)(F)F [Compound 5u]	++ (>40%: ++)
COc1ccc(-c2c3c(cc4ccc(O)cc24)-c2ccc(O)cc2C3)cc1 [Compound 5k]	+ (>5% (relative to ICI): +)
Oc1ccc2c(c1)Cc1c-2cc2ccc(O)cc2c1-c1cccc(C(F)(F)F)c1 [Compound 5d]	+ (>5% (relative to ICI): +)
Oc1ccc2c(c1)Cc1c-2cc2ccc(O)cc2c1-c1ccc(Cl)c(Cl)c1 [Compound 5m]	++ (>40%: ++)
Oc1ccc2c(c1)Cc1c-2cc2ccc(O)cc2c1-c1ccc(-c2ccccc2)cc1 [Compound 5h]	+ (>5% (relative to ICI): +)
